Assays:
Alternaria alternata [1] = assay: Determination of FIC (10x10 matrix, isobologram); type: cell-based; conditions: component of the combination BBIT + ZO
From the text: (§1) The composition of the present invention has antimicrobial properties and has been found particularly effective against deteriogens for plastics materials, especially in soil burial applications. […] The FIC is the ratio of the amount of each component in the composition relative to its Minimum Inhibitory Concentration (MIC) when used alone. […] When the sum of the FIC values is below one, the mixture is synergistic and when the sum of the FIC values is greater than one, the mixture is antagonistic. The FIC values are preferably determined by constructing an isobologram wherein each component in a matrix array is varied stepwise from a concentration in excess of the MIC down to zero ppm.
A matrix was constructed in a 10×10 array in microtitre wells wherein the concentration of each chemical was varied stepwise by serial dilution from a concentration of twice the MIC down to zero. As each microtitre plate contains only 96 wells the combination of the two compounds making up the extreme concentrations (highest and lowest) were omitted. […]
The presence or absence of growth was determined visually after incubation. […] From the matrix an isobologram was created and the FIC for each chemical of the composition calculated. […]
(§2) The FIC values for N-n-butyl-1,2-benzisothiazolin-3-one and the 2:1 zinc complex of 1-hydroxypyridine-2-thione were determined in similar manner to that described in Example 1.

[2] = system: mixed inoculum of Aureobasidium pullulans, Fusarium enicillium funicularum, Scopulariopsis brevicaulis and Streptoverticillium waksmanii; assay: Soil burial of plasticised PVC strips, weight loss; conditions: PVC strip, 3000 ppm
Protocol: Polvinylchioride sheets were prepared by callendaring the following mixture at 160° C.
100 parts Polyvinylchloride (Evipol SH65/20 ex EVC)
25 parts Dioctylphthalate (ex BP Chemicals)
25 parts Dioctyladipate (ex BP Chemicals)
2 parts Mixed Ca/Zn salt Lankromark LN138 as stabiliser (ex Lankro Chem)
3 parts Lankroflex ED6 as stabiliser/plasticiser (ex Lankro Chem)
5 parts Calcium stearate (ex Aldrich)
0.2 parts Stearic acid (ex Aldrich)
Sheets were fabricated with and without a 1:1 mixture of N-n-butyl-1,2-benzisothiazolin 3-one (BBIT) and the 2:1 zinc complex of 1-hydroxypyridine-2-thione (ZO). […]
Strips of the PVC (8 parts, 12.5×5 cm) were weighed to 4 decimal places, folded and buried in potting compost (John Innes No 2) in a plastic humidity chamber. The compost was sprayed with a mixed inoculum of Aureobasidium pullulans, Fusarium enicillium funicularum, Scopulariopsis brevicaulis and Streptoverticillium waksmanii and incubated at 25° C. The PVC strips were examined at 4 weeks intervals when they were cleaned, dried and weighed. The weight loss is recorded in Table 5 below.

Pseudomonas aeruginosa [3] = assay: Determination of MIC (microtitre doubling dilution), bacteria; type: cell-based; conditions: chemical alone; visual growth after 24 hours at 37° C.
Protocol: (§3) Bacteria were grown to stationary phase (18 hours) in nutrient broth to give approximately 10^9 colony forming units per ml (CFU/ml). A 0.1% (v/v) inoculum was used to seed fresh medium and 100 μl was then added to each well of a microtitre plate, except for the first well which contained 200 μl. By using a doubling dilution technique, the concentration of the chemical under investigation was varied in each well along the ordinate axis. The presence or absence of bacterial growth was determined by visual inspection after 24 hours incubation at 37° C.

Aspergillus niger [4] = assay: Determination of FIC (10x10 matrix, isobologram); type: cell-based; conditions: for concentration in the optimal composition: component of the combination BBIT + ZHMT; for Optimal FIC Concentration: component of the combination BBIT + ZO
From the text: as §1
(§4) A matrix was constructed in a 10×10 array in microtitre wells wherein the concentration of each chemical was varied stepwise by serial dilution from a concentration of twice the MIC down to zero. As each microtitre plate contains only 96 wells the combination of the two compounds making up the extreme concentrations (highest and lowest) were omitted. Each mixture (100 μl) was added to the plate so that the total volume was maintained at 200 μl. By transferring 100 μl from each well to the adjacent well containing 100 μl nutrient the concentration of the chemical was reduced from twice the MIC to zero in a stepwise manner.
(§5) The presence or absence of growth was determined visually after incubation. The plates containing bacteria were incubated for 16-24 hours at 37° C. and the plates containing fungi were incubated for 40-72 hours at 25° C. From the matrix an isobologram was created and the FIC for each chemical of the composition calculated. The FIC is the ratio of the concentration of chemical which inhibits growth when applied as a combination of chemicals relative to the MIC for that chemical when applied alone.
(§6) The FIC values for the combination of N-n-butyl-1,2-benzisothiazolin-3-one (BBIT) and the 2:1 zinc complex of 3-hydroxy-4-methylthiazol-2(3H)-thione against a bacterium and a fungus are recorded in Tables 2 and 3, respectively.
as §2

Pseudomonas aeruginosa [5] = assay: Determination of FIC (10x10 matrix, isobologram); type: cell-based; conditions: for concentration in the optimal composition: component of the combination BBIT + ZHMT; for Optimal FIC Concentration: component of the combination BBIT + ZO
From the text: as §1, §4, §5, §6, §2

Aspergillus niger [6] = assay: Determination of MIC (microtitre doubling dilution), fungi; type: cell-based; conditions: chemical alone; visual growth after 48 hours at 25° C.
Protocol: as §3
(§7) The presence or absence of fungal growth was determined by visual inspection after incubation for 48 hours at 25° C.

Aureobasidium pullulans = assay: as above; type: cell-based; conditions: chemical alone; visual growth after 48 hours at 25° C.
Protocol: as §3, §7

Alternaria alternata [7] = assay: as above; type: cell-based; conditions: chemical alone; visual growth after 48 hours at 25° C.
Protocol: as §3, §7

Row | SMILES | Optimal FIC Concentration (Alternaria alternata [1]) [ppm] | Weight Loss ([2]; 0 weeks) [%] | Weight Loss ([2]; 4 weeks) [%] | Weight Loss ([2]; 8 weeks) [%] | Weight Loss ([2]; 12 weeks) [%] | Weight Loss ([2]; 16 weeks) [%] | MIC (Pseudomonas aeruginosa [3]) [ppm] | concentration in the optimal composition (Aspergillus niger [4]) [ppm] | Optimal FIC Concentration (Aspergillus niger [4]) [ppm] | concentration in the optimal composition (Pseudomonas aeruginosa [5]) [ppm] | Optimal FIC Concentration (Pseudomonas aeruginosa [5]) [ppm] | MIC (Aspergillus niger [6]) [ppm] | MIC (Aureobasidium pullulans) [ppm] | MIC (Alternaria alternata [7]) [ppm]
1 | CCCCn1sc2ccccc2c1=O [BBIT, N-n-butyl-1,2-benzisothiazolin-3-one] | 22 | 0 | 1.2 | 2.8 | 5.6 | 8.1 | 444 | 17.4 | 5.3 | 111 | 111 | 44.5 | 3 | 67
2 | [O-]n1ccccc1=S.[O-]n1ccccc1=S.[Zn+2] [ZO, 2:1 zinc complex of 1-hydroxypyridine-2-thione] | 22 | 0 | 0.3 | 0.8 | 1.5 | 2.3 | 33.5 | – | 8.3 | – | 16.4 | 11 | 1.5 | 55
3 | Cc1csc(=S)n1[O-].Cc1csc(=S)n1[O-].[Zn+2] [ZHMT, 2:1 zinc complex of 3-hydroxy-4-methylthiazol-2(3H)-thione] | – | – | – | – | – | – | 16 | 5.9 | – | 10.6 | – | 16 | – | –
